In brackets after ≈: the same amount, converted by molar mass. Where two headings read alike, the source gives them in different places.
How the values were obtained:
[1] = levels in cerebro-spinal fluid of rats; format: in vivo; settings: 20 mg/kg s.c.
[2] = tested on: ampicillin-resistant Haemophilus influenzae; assay: treatment of ampicillin-resistant Haemophilus influenzae meningitis in infant rats; format: in vivo
Haemophilus influenzae = assay: in vitro antibacterial activity, agar dilution; format: cell-based
Text: (§1) The bis-tetrazol-thiomethyl substituted cephalosporins of this invention are broad spectrum antibiotics which inhibit the growth of both gram positive and gram negative microorganisms which are pathogenic to man and animals. […] The following Table 2 lists the minimum inhibitory concentrations of representative compounds of the invention.
(§2) The data in TABLE 2 were obtained in the agar dilution test method using Mueller-Hinton agar containing two percent Supplement C (Difco). Serial two-fold dilutions were run with the highest concentration on test at 128 mcg/ml.

Shigella sonnei = assay: in vitro antibacterial activity, agar dilution; format: cell-based; settings: strain N9, read-out: Minimum Inhibitory Concentration
Text: as §1, §2

Salmonella sp. = assay: in vitro antibacterial activity, agar dilution; format: cell-based
Text: as §1, §2

Enterobacter cloacae = assay: in vitro antibacterial activity, agar dilution; format: cell-based
Text: as §1, §2

[3] = tested on: Staphylococcus epidermidis; assay: in vitro antibacterial activity, agar dilution; format: cell-based
Text: as §1, §2

Proteus morganii = assay: in vitro antibacterial activity, agar dilution; format: cell-based; settings: Morganella morganii; strain PR15; read-out: Minimum Inhibitory Concentration
Text: as §1, §2

Staphylococcus aureus = assay: in vitro antibacterial activity, agar dilution; format: cell-based
Text: as §1, §2

Serratia marcescens = assay: in vitro antibacterial activity, agar dilution; format: cell-based
Text: as §1, §2

Streptococcus Group D = assay: in vitro antibacterial activity, agar dilution; format: cell-based; settings: read-out: Minimum Inhibitory Concentration
Text: as §1, §2

Streptococcus Group A = assay: in vitro antibacterial activity, agar dilution; format: cell-based; settings: strain C203; read-out: Minimum Inhibitory Concentration
Text: as §1, §2

Streptococcus pneumoniae = assay: in vitro antibacterial activity, agar dilution; format: cell-based; settings: strain PARK, read-out: Minimum Inhibitory Concentration
Text: as §1, §2

Citrobacter freundii = assay: in vitro antibacterial activity, agar dilution; format: cell-based; settings: strain CF17, read-out: Minimum Inhibitory Concentration
Text: as §1, §2

Klebsiella sp. = assay: in vitro antibacterial activity, agar dilution; format: cell-based
Text: as §1, §2

Escherichia coli = assay: in vitro antibacterial activity, agar dilution; format: cell-based
Text: as §1, §2

Pseudomonas aeruginosa = assay: in vitro antibacterial activity, agar dilution; format: cell-based
Text: as §1, §2

Proteus rettgeri = assay: in vitro antibacterial activity, agar dilution; format: cell-based
Text: as §1, §2

Proteus inconstans = assay: in vitro antibacterial activity, agar dilution; format: cell-based; settings: Providencia alcalifaciens, read-out: Minimum Inhibitory Concentration
Text: as §1, §2

Enterobacter aerogenes = assay: in vitro antibacterial activity, agar dilution; format: cell-based; settings: Klebsiella aerogenes, read-out: Minimum Inhibitory Concentration
Text: as §1, §2

[4] = tested on: Bordetella bronchoseptica; assay: in vitro antibacterial activity, agar dilution; format: cell-based; settings: strain 16, read-out: Minimum Inhibitory Concentration
Text: as §1, §2

Proteus vulgaris (PV2S) = assay: in vivo activity in infected mice; settings: sc, doses at 1 and 5 hours post infection
Method: (§3) Compound E (TABLE 2), a preferred compound of the invention, was administered to mice infected with various pathogens to determine the compound's effective dose (ED50). Listed below in TABLE 3 are the ED50 values determined with the indicated infectious organism. | ^1 Subcutaneous doses at 1 and 5 hours post infection

Escherichia coli (EC14) = assay: in vivo activity in infected mice; settings: sc, doses at 1 and 5 hours post infection
Method: as §3

[5] = tested on: Serratia marcescens (SE3); assay: in vivo activity in infected mice; settings: sc, doses at 1 and 5 hours post infection
Method: as §3

[6] = tested on: Staphylococcus aureus (3055); assay: in vivo activity in infected mice; settings: sc, doses at 1 and 5 hours post infection
Method: as §3

[7] = tested on: Streptococcus pyogenes (C203); assay: in vivo activity in infected mice; settings: sc, doses at 1 and 5 hours post infection
Method: as §3

[8] = read-out: Minimum Inhibitory Concentration

## CO/N=C(\C(=O)N[C@@H]1C(=O)N2C(C(=O)O)=C(CSc3nnnn3Cc3nnn[nH]3)CS[C@H]12)c1csc(N)n1 [Compound E, syn 7β-[α-methoximino-α-(2-amino-1,3-thiazol-4-yl)-acetamido]-3-[1-(1H-tetrazol-5-ylmethyl)-1H-tetrazol-5-ylthiomethyl]-3-cephem-4-carboxylic acid]
[1]
  levels in the cerebro-spinal fluid: present in effective levels
[2]
  effectiveness in treatment of meningitis: effective in the treatment
Haemophilus influenzae; Haemophilus influenzae, read-out: Minimum Inhibitory Concentration
  MIC: 0.125 µg/mL (≈ 0.216 µM)
Haemophilus influenzae; strain 251, resistant strain
  Minimum Inhibitory Concentration: .125 µg/mL
Shigella sonnei
  MIC: 0.125 µg/mL (≈ 0.216 µM)
Salmonella sp.; strain 1335, read-out: Minimum Inhibitory Concentration
  MIC: 0.25 µg/mL (≈ 0.431 µM)
Salmonella sp.; strain X514, read-out: Minimum Inhibitory Concentration
  MIC: 0.125 µg/mL (≈ 0.216 µM)
Enterobacter cloacae; strain 265A, read-out: Minimum Inhibitory Concentration
  MIC: 64 µg/mL (≈ 110 µM)
Enterobacter cloacae; strain EB5, read-out: Minimum Inhibitory Concentration
  MIC: 2 µg/mL (≈ 3.45 µM)
[3]; strain EPI1, read-out: Minimum Inhibitory Concentration
  MIC: 16 µg/mL (≈ 27.6 µM)
[3]; strain EPI2, read-out: Minimum Inhibitory Concentration
  MIC: 64 µg/mL (≈ 110 µM)
Proteus morganii
  MIC: 0.06 µg/mL (≈ 0.104 µM)
Staphylococcus aureus; [8]
  MIC: 16 µg/mL (≈ 27.6 µM)
Staphylococcus aureus; strain V41, read-out: Minimum Inhibitory Concentration
  MIC: 8 µg/mL (≈ 13.8 µM)
Staphylococcus aureus; strain X1.1, read-out: Minimum Inhibitory Concentration
  MIC: 4 µg/mL (≈ 6.9 µM)
Staphylococcus aureus; strain X400, read-out: Minimum Inhibitory Concentration
  MIC: > 128 µg/mL
Serratia marcescens; strain SE3, read-out: Minimum Inhibitory Concentration
  MIC: 1 µg/mL (≈ 1.73 µM)
Serratia marcescens; strain X93, read-out: Minimum Inhibitory Concentration
  MIC: 0.25 µg/mL (≈ 0.431 µM)
Streptococcus Group D; strain 9960
  MIC: 16 µg/mL (≈ 27.6 µM)
Streptococcus Group D; strain X66
  MIC: > 128 µg/mL
Streptococcus Group A
  MIC: 0.06 µg/mL (≈ 0.104 µM)
Streptococcus pneumoniae
  MIC: 0.03 µg/mL (≈ 0.0518 µM)
Citrobacter freundii
  MIC: 32 µg/mL (≈ 55.2 µM)
Klebsiella sp.; strain KAE, read-out: Minimum Inhibitory Concentration
  MIC: 16 µg/mL (≈ 27.6 µM)
Klebsiella sp.; strain X26, read-out: Minimum Inhibitory Concentration
  MIC: 0.06 µg/mL (≈ 0.104 µM)
Escherichia coli; [8]
  MIC: 0.125 µg/mL (≈ 0.216 µM)
Escherichia coli; strain EC14, read-out: Minimum Inhibitory Concentration
  MIC: 0.06 µg/mL (≈ 0.104 µM)
Escherichia coli; strain N10, read-out: Minimum Inhibitory Concentration
  MIC: 0.25 µg/mL (≈ 0.431 µM)
Pseudomonas aeruginosa; strain Ps18, read-out: Minimum Inhibitory Concentration
  MIC: 8 µg/mL (≈ 13.8 µM)
Pseudomonas aeruginosa; strain X239, read-out: Minimum Inhibitory Concentration
  MIC: 16 µg/mL (≈ 27.6 µM)
Pseudomonas aeruginosa; strain X528, read-out: Minimum Inhibitory Concentration
  MIC: 8 µg/mL (≈ 13.8 µM)
Proteus rettgeri; Providencia rettgeri, read-out: Minimum Inhibitory Concentration
  MIC: 0.125 µg/mL (≈ 0.216 µM)
Proteus rettgeri; strain C24
  Minimum Inhibitory Concentration: .125 µg/mL
Proteus inconstans
  MIC: 0.125 µg/mL (≈ 0.216 µM)
Enterobacter aerogenes; strain C32
  MIC: 0.25 µg/mL (≈ 0.431 µM)
Enterobacter aerogenes; strain EB17
  MIC: 0.25 µg/mL (≈ 0.431 µM)
Enterobacter aerogenes; strain X68
  MIC: 0.06 µg/mL (≈ 0.104 µM)
[4]
  MIC: 32 µg/mL (≈ 55.2 µM)
Proteus vulgaris (PV2S)
  ED50: 0.12 mg/kg
Escherichia coli (EC14)
  ED50: 0.16 mg/kg
[5]
  ED50: 1 mg/kg
[6]
  ED50: 7.6 mg/kg
[7]
  ED50: 0.21 mg/kg

Source: patent US4346076A, “Bis-tetrazoylmethyl substituted cephalosporin antibiotics” (Eli Lilly and Company, priority 1980, dated 1982)
